Assay results as given in US20240067639A1, “SMALL MOLECULES THAT TARGET THE RNA THAT CAUSES ALS” (EXPANSION THERAPEUTICS, INC., priority 2020, published 2024).
pIC50, pKd: −log10 of the molar value. Where two headings read alike, the source gives them in different places.

Key:
r(G4C2)^exp = conditions: background statement; cited from earlier work
[1] = system: cultured cells and induced neurons; conditions: cited from earlier work
[2] = system: RAN translation of (G4C2)66-No ATG-GFP in HEK293T cells; assay: Cell-based assay of RAN translation inhibition (GFP/mCherry reporter); conditions: Homo sapiens, HEK-293T, read-out: RANT IC50
[3] = target: Biotin-labeled RNA (target RNA); assay: BLI affinity measurement (ForteBio Octet RED384); type: binding; conditions: Table G

| Structure (SMILES) | pKd [3] | binding to r(G4C2)exp (r(G4C2)^exp) | inhibition of RAN translation and foci formation [1] | pIC50 ([2]; Table G, HEK293T) | pIC50 [2] |
| --- | --- | --- | --- | --- | --- |
| Cc1c2cc[n+](CCN3CCCCC3)cc2c(C)c2c1[nH]c1ccc(O)cc12 [Compound 1a] | – | binds | inhibits RAN translation and foci formation | – | – |
| Cc1c2ccncc2cc2c3cc(Oc4cccc(N)n4)ccc3n(C)c12 [Compound 304, 6-((5,6-dimethyl-6H-pyrido[4,3-b]carbazol-9-yl)oxy)pyridin-2-amine] | 5.85 | – | – | 5.23 | – |
| Cc1c2ccnc(C(=O)NCCN)c2cc2c3cc(F)ccc3n(C)c12 [Compound 308, N-(2-aminoethyl)-9-fluoro-5,6-dimethyl-6H-pyrido[4,3-b]carbazole-1-carboxamide] | 6.25 | – | – | < 4.00 | – |
| Cc1c2ccnc(C(=O)NCCN)c2cc2c3cc(F)c(F)cc3n(C)c12 [Compound 309, N-(2-aminoethyl)-8,9-difluoro-5,6-dimethyl-6H-pyrido[4,3-b]carbazole-1-carboxamide] | 5.85 | – | – | 4.39 | – |
| Cc1c2ccncc2cc2c3cc(Oc4cccnc4)ccc3n(C)c12 [Compound 311, 5,6-dimethyl-9-(pyridin-3-yloxy)-6H-pyrido[4,3-b]carbazole] | 5.64 | – | – | – | 4.70 |
| Cc1c2ccncc2cc2c3ccccc3n(CCN(C)C)c12 [Compound 312, N,N-dimethyl-2-(5-methyl-6H-pyrido[4,3-b]carbazol-6-yl)ethanamine] | 5.89 | – | – | – | 5.13 |
| COc1ccc2c(c1)c1cc3cnccc3c(C)c1n2CCN1CCCCC1 [Compound 316, 9-methoxy-5-methyl-6-(2-(piperidin-1-yl)ethyl)-6H-pyrido[4,3-b]carbazole] | 5.47 | – | – | – | 5.00 |
| Cc1c2ccncc2cc2c3ccccc3n(CCN3CCCCC3)c12 [Compound 318, 5-methyl-6-(2-(piperidin-1-yl)ethyl)-6H-pyrido[4,3-b]carbazole] | 5.22 | – | – | – | 4.80 |
| Cc1c2ccncc2cc2c3ccccc3n(CCN3CCOCC3)c12 [Compound 319, 4-(2-(5-methyl-6H-pyrido[4,3-b]carbazol-6-yl)ethyl)morpholine] | 5.11 | – | – | – | 4.92 |
| COc1ccc2c(c1)c1cc3cnccc3c(C)c1n2CCN1CCOCC1 [Compound 320, 4-(2-(9-methoxy-5-methyl-6H-pyrido[4,3-b]carbazol-6-yl)ethyl)morpholine] | 4.00 | – | – | – | 5.72 |
| CNCCOc1ccc2c(c1)c1cc3cnccc3c(C)c1n2C [Compound 321, 2-((5,6-dimethyl-6H-pyrido[4,3-b]carbazol-9-yl)oxy)-N-methylethanamine] | 6.15 | – | – | 5.46 | – |

Continued, in another order:

| pKd [3] | Structure (SMILES) | binding to r(G4C2)exp (r(G4C2)^exp) | inhibition of RAN translation and foci formation [1] | pIC50 ([2]; Table G, HEK293T) | pIC50 [2] |
| --- | --- | --- | --- | --- | --- |
| 5.92 | Cc1c2ccncc2cc2c3cc(Oc4ccncc4)ccc3n(C)c12 [Compound 306, 5,6-dimethyl-9-(pyridin-4-yloxy)-6H-pyrido[4,3-b]carbazole] | – | – | 4.85 | – |
| 6.01 | Cc1c2ccnc(C(=O)N[C@H](C)CN(C)C)c2cc2c3cc(F)ccc3n(C)c12 [Compound 310, (R)—N-(1-(dimethylamino)propan-2-yl)-9-fluoro-5,6-dimethyl-6H-pyrido[4,3-b]carbazole-1-carboxamide] | – | – | 4.42 | – |
| 5.33 | Cc1c2ccnc(C(=O)NCCN(C)C)c2cc2c3cc(F)c(F)cc3n(C)c12 [Compound 313, N-(2-(dimethylamino)ethyl)-8,9-difluoro-5,6-dimethyl-6H-pyrido[4,3-b]carbazole-1-carboxamide] | – | – | < 4.00 | – |
| 5.52 | Cc1c2ccncc2cc2c3cc(Oc4ccc(N)nc4)ccc3n(C)c12 [Compound 314, 5-((5,6-dimethyl-6H-pyrido[4,3-b]carbazol-9-yl)oxy)pyridine-2-amine] | – | – | < 4.22 | – |
| 4.96 | Cc1c2ccnc(C(=O)NCCN(C)C)c2cc2c3cc(F)ccc3n(C)c12 [Compound 315, N-(2-(dimethylamino)ethyl)-9-fluoro-5,6-dimethyl-6H-pyrido[4,3-b]carbazole-1-carboxamide] | – | – | < 4.00 | – |
| 5.30 | Cc1c2ccncc2cc2c3ccccc3n(CC3=NCCN3)c12 [Compound 317, 6-((4,5-dihydro-1H-imidazol-2-yl)methyl)-5-methyl-6H-pyrido[4,3-b]carbazole] | – | – | 5.30 | – |
